3 compounds from ChEMBL document CHEMBL1201862, “PubChem BioAssay data set” (2004) can be followed below.

What all share (assay): inhibition of tumour cell growth, NCI panel, 48 h
Experiment [1] concerns A498.
Experiment [2] concerns DU-145.
Experiment [3] relates to HL-60.
Experiment [4] has as its system HOP-62.
For experiment [5], the system named is K562.
Experiment [6] deals with KM12.
Experiment [7] deals with M14.
The subject of experiment [8] is MDA-MB-231.
Experiment [9] deals with MDA-N.
In experiment [10] the test system is MOLT-4.
In experiment [11] the test system is NCI-H23.
The test system of experiment [12] is NCI-H460.
Experiment [13] has as its system OVCAR-3.
Experiment [14] deals with OVCAR-4.
Experiment [15] deals with SF-539.
The subject of experiment [16] is SK-MEL-28.
For experiment [17], the system named is SR.
For experiment [18], the system named is SW-620.
Experiment [19] deals with T47D.
The test system of experiment [20] is TK-10.

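Grown in 96-well plates, cells were treated for 48 hours with each compound at five concentrations. Insufficient inhibition: endpoint recorded as highest concentration tested. GI50 marks 50% less growth.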 Active and inactive are the calls of the source. No stated cut-off is given here; in the data, active = GI50 up to about 1.1 µM and inactive = higher. Some results are limits rather than exact numbers.

In the case of `CC(C)(Cl)C(Cl)CC/C(CBr)=C(\Cl)CCl` (stereo not given), the GI50 was 19.4 µM (inactive) in experiment [1]; 13.4 µM (inactive) in [2]; 0.582 µM (active) in [3]; 11.8 µM (inactive) in experiment [4]; 0.678 µM (active) in experiment [5]; 7.01 µM (inactive) in [6]. For the same compound, the GI50 in experiment [7] is 1.81 µM (inactive); in [8], 2.57 µM (inactive); in experiment [9], 2.21 µM (inactive); in experiment [10], 0.491 µM (active); in experiment [11] it was 3.87 µM (inactive); in [12], 12.7 µM (inactive). In addition, the GI50 in experiment [13] is 4.48 µM (inactive); in [14] it was 2.79 µM (inactive); in [15], 4.86 µM (inactive); in experiment [16], 2.92 µM (inactive); in [17] it was 0.485 µM (active); in [18], 1.96 µM (inactive). The values for the GI50 in experiment [19] and in experiment [20] were 1.82 µM (inactive) and 14.1 µM (inactive), respectively.

Consider `CC1=NN(c2cccc(Cl)c2)C2(SCC(=O)N2c2nc3ccccc3s2)/C1=C\c1cccs1` (stereo not given), for which the GI50 is 25.4 µM (inactive) in [1]; 46.5 µM (inactive) in experiment [2]; 27.9 µM (inactive) in [3]; 28.2 µM (inactive) in experiment [4]; 4.58 µM (inactive) in experiment [5]; 25.8 µM (inactive) in experiment [6]. Besides, the GI50 in experiment [7] is 29.7 µM (inactive); in experiment [8] it was 30.2 µM (inactive); in experiment [9] it was 21.1 µM (inactive); in experiment [10], 11.4 µM (inactive); in [11], 18.5 µM (inactive); in experiment [12], 27.2 µM (inactive). For the same compound, the GI50 in experiment [13] was 24.8 µM (inactive); in experiment [14] it was 21 µM (inactive); in [15], 5.01 µM (inactive); in experiment [16], 29.4 µM (inactive); in experiment [17] it was 11.7 µM (inactive); in [18], 34.3 µM (inactive). In addition, the GI50 in experiment [19] was 24.9 µM (inactive); in experiment [20], 31.7 µM (inactive).

With `Nc1nnnn1NC(=O)NCCCl`, the GI50 in [1], in experiment [2], in experiment [3], in experiment [4], in experiment [5] and in experiment [6] was > 10 µM (inactive) in each case. Further, the GI50 in experiment [7], in [8], in [9], in experiment [10], in [11] and in [12] was > 10 µM (inactive) each time. Also, the GI50 in experiment [13], in experiment [14], in experiment [15], in experiment [16], in experiment [17] and in experiment [18] was > 10 µM (inactive) each time. In addition, the GI50 in experiment [19] and in experiment [20] was > 10 µM (inactive) each time.
